Each sequence was assayed on PBMC (assay: ELISPOT (IFNγ, IL-5, IL-10, IL-17, IL-21) of PBMC expanded 14 days with Bla g extract, then stimulated with peptides or peptide pools). Conditions: non-redundant epitopes; sensitized donors.
Assay type: cell-based, human
Parameters: key to Average Magnitude of Response: spot forming cells (SFC) per 10^6 PBMC; Response Rate per Subject: unit not given here
Experimental: PBMC Isolation and Cell Cultures: PBMC (peripheral blood mononuclear cells) were isolated from 450 mL (one unit) of blood by density gradient centrifugation as described and cryopreserved. For in vitro expansion of PBMC for peptide screening, cells were cultured in RPMI1640 (Omega Scientific)+5% human AB serum (Gemini Bioscience), GlutaMAX (Gibco), and penicillin/streptomycin (Omega Scientific) at 2×10^6 per mL, stimulated with 10 ug/mL Bla g extract (Greer), and incubated at 37° C. in 5% CO2. Every three days, IL-2 and IL-7 (10 U/mL) were added to the cultures. Cells were harvested for peptide screening at day 14.
ELISPOT Assays: Production of IFNγ, IL-5, IL-17, IL-10, and IL-21 (as representative of TH1, TH2, TH17, TR1, and […], respectively) in response to peptide stimulation was measured by ELISPOT as described previously. […] In brief, 1×10^5 cells per well were incubated with peptide, peptide pool, or Bla g extract (10, 5, and 10 ug/ml, respectively) on anti-lymphokine antibody coated ELISPOT plates (Millipore #MSIPS4510) for 22 hours. Subsequently, secondary anti-lymphokine antibodies were added and incubated for 2 hours, washed, and avidin-peroxidase complex added for 1 hour. Plates were washed and spots developed with 3-amino-9-ethylcarbazole (Sigma #A6926) and Vector Blue (Vector #SK-5300) for IFNγ/IL-5 and IL-10/IL-17 dual plates or TMB (Sigma #T0565) for single IL-21. Criteria for peptide pool positivity were at least 100 spot forming cells (SFC) per 10^6 PBMC, p<0.05, and stimulation index≥2. Criteria for peptide positivity were identical except with a threshold of 20 SFCs.
We synthetized overlapping peptide sets of 15 amino acids in length overlapping by 10 residues and covering the entire sequence of known Bla g Allergens, i.e. Bla g 1-7, 9 and 11, referred from hereafter collectively as BLAGA. A total of 809 BLAGA peptides were arranged in pools, encompassing on average 20 peptides.
To assess T cell reactivity, we utilized a strategy applied to the definition of epitopes from various allergen sources^15,16 utilizing in vitro stimulation with allergen extracts. Here, PBMC from each subject were stimulated in vitro with Bla g extract. After 14 days, pools of overlapping 15-mer peptides from the BLAGA were tested for responses, and positive pools deconvoluted to identify the specific epitopes. As readout, we utilized ELISPOT assays specific for IL-5, IFNγ, IL-10, IL-17 and IL-21, chosen as representative of TH2, TH1, TR1, TH17 and TFH reactivity, respectively.

| Sequence | Average Magnitude of Response | Response Rate per Subject |
| --- | --- | --- |
| LKYFNMGVQKFWAFD | 19.8 | 8.6 |
| NAIEFLNNIHDLLGI | 3.0 | 1.4 |
| KNRTTIRGRTKFEGN (listed as Blattella germanica) | 81.7 | 2.9 |
| KDDWENLEIDMIVDT | 8.4 | 2.9 |
| ERYQLVSYNLNSRSG | 3.4 | 1.4 |
| VLEKLEAGFAKLAAS (listed as Blattella germanica) | 65.5 | 14.3 |
| LGHTVCLSGFMGIDL | 3.2 | 2.9 |
| RSEERLATATAKLAE | 13.3 | 1.4 |
| MNITGSINLMFSQMY | 7.6 | 5.7 |
| IAGPVSEVTALNRQI | 3.3 | 2.9 |
| VFIGKFYTEFDMENN | 4.0 | 2.9 |
| LNQEAHYQFDSIHKF | 22.6 | 2.9 |
| LDYLNHMAKEDLVAN | 13.0 | 10.0 |
| TKKFDEVVKANGGYL | 24.3 | 4.3 |
| NGGYLAAGKLTWADF (listed as Blattella germanica) | 58.5 | 5.7 |
| VYEVAIPDRLTLRVE | 3.4 | 2.9 |
| GASILTYKTSKLYKM | 19.3 | 7.1 |
| AGTWSALNSIQQFIS | 15.7 | 7.1 |
| QVYRRLVTAVNDIEK | 44.1 | 5.7 |
| VLGLPAIKAWVAKRP | 48.5 | 14.3 |
| KEFANVVRVVRHTSK | 3.3 | 2.9 |
| LNDYILPAPYEIYPW | 3.0 | 2.9 |
| GVTPVFYNMVKQGLV | 20.8 | 1.4 |
| GEKDFEDYRFQEGDW | 12.0 | 8.6 |
| ISDFRAAIANYHYDA | 216.2 | 18.6 |
| HMAKEDLVANQPNLK (listed as Blattella germanica) | 68.8 | 4.3 |
| RIKAFLALVECPCNK | 4.2 | 1.4 |

| Sequence | Average Magnitude of Response | Response Rate per Subject |
| --- | --- | --- |
| LNTYYSYYYFNYPTF | 4.1 | 2.9 |
| RWRQIFNMVGFRNAV (listed as Blattella germanica) | 61.7 | 11.4 |
| GIRIYVDVVLNQMSG (listed as Blattella germanica) | 62.5 | 4.3 |
| NYAIVEGCPAAANGH (listed as Blattella germanica) | 64.6 | 1.4 |
| EVVKANGGYLAAGKL | 4.6 | 5.7 |
| LNIFTNNLGRINTHV (listed as Blattella germanica) | 57.6 | 4.3 |
| KAAVHLLVAVKASKE | 4.4 | 1.4 |
| QTLFLLLLLLAAVSA | 3.2 | 1.4 |
| LKNYQLDSELRIKAF | 3.2 | 1.4 |
| KLAASDSKSLLRKYL | 43.8 | 7.1 |
| MAPSYKLTYCPVKAL | 8.8 | 4.3 |
| LTVFDSTSCNVVVAS | 4.0 | 2.9 |
| ALNSIQQFISSEMVE | 4.4 | 4.3 |
| GKDYILRVSQLGHTV | 3.4 | 4.3 |
| PAYFKMNSPSLWKYN (listed as Blattella germanica) | 56.1 | 4.3 |
| NASAVIQEFLKTYKK | 5.0 | 2.9 |
| GHSHFVSDVVLSSDG | 9.6 | 2.9 |
| KTPVLEIDGKQTHQS (listed as Blattella germanica) | 57.0 | 14.3 |
| FRKFSNNFEFSYLLG | 3.3 | 1.4 |
| HDDRLGFLTFCPTNL (listed as Blattella germanica) | 83.1 | 7.1 |
| KKLQFTYSESLDLDD | 4.2 | 2.9 |
| QIIAIATDYLANDAE | 7.5 | 2.9 |
| VIYVQIRFSVRRFHP | 15.1 | 2.9 |
| VQKLQKEVDRLEDEL | 3.3 | 1.4 |
| KTPVLSVNATVVRLQ | 3.2 | 1.4 |
| MIVDTISDFRAAIAN (listed as Blattella germanica) | 91.4 | 7.1 |
| QKKWDPLKKETIPYY | 7.7 | 4.3 |

| Sequence | Average Magnitude of Response | Response Rate per Subject |
| --- | --- | --- |
| KLYKMAVAFMLAYPY | 15.8 | 7.1 |
| FRPWWERYQLVSYNL | 10.8 | 4.3 |
| HGRTFSSLFQVANQY | 8.4 | 4.3 |
| AQIQVVIHLDEQYIY | 4.6 | 5.7 |
| QDVHKKLREWLSKNV | 8.5 | 1.4 |
| DRRGEMFYYTRQQLY | 3.5 | 1.4 |
| NTTFSNASAVIQEFL | 4.2 | 5.7 |
| FGSTLLDVIQSGLEN | 26.1 | 8.6 |
| LRLSEHLDYVKNLTV | 3.1 | 1.4 |
| RVPFSHDDRLGFLTF | 34.2 | 7.1 |
| DRKMYWQFKMDKIQI (listed as Blattella germanica) | 78.8 | 5.7 |
| SSLFQVANQYTGILY | 50.2 | 10.0 |
| VVRLQSWQSEMLRMN | 6.4 | 2.9 |
| SHVHFRFVPSAAVEF | 3.3 | 1.4 |
| DKKVYRVFESTVTGR | 4.4 | 2.9 |
| EAGFAKLAASDSKSL | 16.0 | 7.1 |
| RCGRSMQGYPFNPCL | 20.4 | 10.0 |
| DPSIHVLKMVAELTH | 3.4 | 1.4 |
| NIACLLHNKYDSTKS (listed as Blattella germanica) | 61.0 | 2.9 |
| NLEIDMIVDTISDFR | 19.1 | 2.9 |
| RHNSAYKLHFNAFEY | 44.0 | 1.4 |
| VPIMNIYSAFEFDPN | 18.5 | 4.3 |
| FYTEFDMENNRVGFA | 11.3 | 2.9 |
| IDDIIAILPVDDLYA | 6.6 | 2.9 |
| RDMVRRCNNVGIRIY | 5.2 | 5.7 |
